The target in one assay is T1, Human 5-HT2C receptor (Homo sapiens, UniProt P28335).
T1 construct: host or cells: U2OS or HEK (not assigned to 5-HT2C in the text)
T1 sequence (P28335 33-458): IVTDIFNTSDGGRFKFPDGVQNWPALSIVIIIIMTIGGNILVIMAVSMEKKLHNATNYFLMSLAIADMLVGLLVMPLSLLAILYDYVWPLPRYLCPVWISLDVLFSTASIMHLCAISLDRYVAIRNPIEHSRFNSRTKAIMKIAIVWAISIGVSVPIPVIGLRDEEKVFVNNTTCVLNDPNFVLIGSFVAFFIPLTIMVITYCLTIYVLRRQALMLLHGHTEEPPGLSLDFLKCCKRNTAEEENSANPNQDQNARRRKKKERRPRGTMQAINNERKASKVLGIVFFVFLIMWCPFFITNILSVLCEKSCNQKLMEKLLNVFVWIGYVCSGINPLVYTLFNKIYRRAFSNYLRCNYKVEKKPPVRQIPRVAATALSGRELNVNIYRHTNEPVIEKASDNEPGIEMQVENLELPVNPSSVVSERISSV
In words: Calcium mobilization assay (Gq signaling). The format is cell-based. From the text:
(§1) Calcium Mobilization Assay Method (Performed by DiscoveRx Eurofins)
(§2) The Calcium No-Wash^PLUS assay monitors the activation of a GPCR via Gq secondary messenger signaling in a live cell, non-imaging assay format. Calcium mobilization in PathHunter® cell lines or other cell lines stably expressing Gq-coupled GPCRs is monitored using a calcium-sensitive dye that is loaded into cells. GPCR activation by a compound results in the release of calcium from intracellular stores and an increase in dye fluorescence that is measured in real-time.
(§3) Cell lines expressing the GPCR of interest were expanded from freezer stocks according to standard procedures. Human 5-HT2A, 5-HT2B or 5-HT2C receptor-mediated calcium mobilization was evaluated in stably transfected human-derived U2OS (5-HT2A or 5-HT2B) or HEK (5-HT2B) cells. Cells were seeded in a total volume of 20 μL into black-walled, clear-bottom, Poly-D-lysine coated 384-well microplates and incubated at 37° C. overnight prior to testing. […]
(§4) Intermediate dilution of sample stocks was performed to generate 4× sample in assay buffer. Compound agonist activity was measured on a FLIPR Tetra (MDS). Calcium mobilization was monitored for 2 minutes and 10 μL 4× sample in HBSS/20 mM Hepes was added to the cells seconds into the assay.
(§5) Compound activity data was analyzed using CBIS data analysis suite (ChemInnovation, CA). […]
On the technique in general: Calcium flux is commonly read through the fluorescence of an indicator in the cells.

For a further assay, the target named is T2, Human 5-HT2B receptor (Homo sapiens, UniProt P41595).
T2 construct: host or cells: U2OS or HEK (the text names 5-HT2B under both)
In words: Calcium mobilization assay (Gq signaling). The format is cell-based.
Excerpt: as §1, §2, §3, §4, §5

Assay [1] deals with T3, 5HT2A (Homo sapiens, UniProt P28223). In words: Calcium mobilization assay (Gq signaling). On the set-up: host or cells: U2OS (human), stably transfected. The class given is cell-based.
Excerpt: as §1, §2
Cell lines expressing the GPCR of interest were expanded from freezer stocks according to standard procedures. Human 5-HT2A, 5-HT2B or 5-HT2C receptor-mediated calcium mobilization was evaluated in stably transfected human-derived U2OS (5-HT2A or 5-HT2B) or HEK (5-HT2B) cells. Cells were seeded in a total volume of 20 μL into black-walled, clear-bottom, Poly-D-lysine coated 384-well microplates and incubated at 37° C. overnight prior to testing.
Assays were performed in 1× Dye Loading Buffer consisting of 1× Dye, 1× Additive A and 2.5 mM Probenecid in HBSS/20 mM Hepes. Probenicid was prepared fresh. Cells were loaded with dye prior to testing. Media was aspirated from cells and replaced with 20 μL Dye Loading Buffer. Cells were incubated for 45 minutes at room temperature.
For agonist determination, cells were incubated with sample to induce response. After dye loading, cells were removed from the incubator and 10 μL HBSS/20 mM Hepes was added. 3× vehicle was included in the buffer when performing agonist dose curves to define the EC80 for subsequent antagonist assays. Cells were incubated for 30 minutes at room temperature in the dark to equilibrate plate temperature.
as §4
Compound activity data was analyzed using CBIS data analysis suite (ChemInnovation, CA). For agonist mode assays, percentage activity is calculated using the following formula: % Activity=100%×(mean RFU of test sample−mean RFU of vehicle control)/(mean MAX RFU control ligand−mean RFU of vehicle control).
In these studies, the MAX RFU was generated by using 0.1 μM serotonin for the calcium mobilization assay.

The conditions of assay [2]: in comparison to mescaline or 2,5-dimethoxy-4-methylphenylisopropylamine at similar doses; cited from earlier work.
Another assay has as its target T4, Human 5-HT1A receptor (Homo sapiens, UniProt P08908).
T4 construct: host or cells: CHO (hamster), stably transfected, cAMP Hunter cell line
T4 sequence (P08908 1-422): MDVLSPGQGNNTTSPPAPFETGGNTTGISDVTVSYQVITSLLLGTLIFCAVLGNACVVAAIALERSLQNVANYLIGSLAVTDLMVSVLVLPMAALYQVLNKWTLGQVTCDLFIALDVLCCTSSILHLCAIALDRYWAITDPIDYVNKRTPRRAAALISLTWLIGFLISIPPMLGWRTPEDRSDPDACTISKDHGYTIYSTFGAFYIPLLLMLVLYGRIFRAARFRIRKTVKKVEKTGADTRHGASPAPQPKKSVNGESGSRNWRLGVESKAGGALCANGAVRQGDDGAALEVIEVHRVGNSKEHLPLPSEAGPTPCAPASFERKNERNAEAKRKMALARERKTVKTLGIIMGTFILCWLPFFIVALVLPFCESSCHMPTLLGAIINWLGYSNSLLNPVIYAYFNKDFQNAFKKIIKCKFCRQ
In words: cAMP secondary messenger pathway assay (HitHunter cAMP, Gi agonist mode). The class given is cell-based. The conditions noted are these: CHO cells, forskolin present, read-out: EC50 5-HT1A (Gi signaling). From the text: cAMP Secondary Messenger Pathway Assay Method (Performed by DiscoveRx Eurofins)
DiscoverX has developed a panel of cell lines stably expressing non-tagged GPCRs that signal through cAMP. Hit Hunter® cAMP assays monitor the activation of a GPCR via Gi and Gs secondary messenger signaling in a homogenous, non-imaging assay format using a technology developed by DiscoverX called Enzyme Fragment Complementation (EFC) with β-galactosidase (β-Gal) as the functional reporter. The enzyme is split into two complementary portions: EA for Enzyme Acceptor and ED for Enzyme Donor. ED is fused to cAMP and in the assay competes with cAMP generated by cells for binding to a cAMP-specific antibody. Active β-Gal is formed by complementation of exogenous EA to any unbound ED-cAMP. Active enzyme can then convert a chemiluminescent substrate, generating an output signal detectable on a standard microplate reader.
cAMP Hunter cell lines were expanded from freezer stocks according to standard procedures. Human 5-HT1A receptor-mediated cAMP signaling was evaluated in stably transfected hamster-derived CHO cells. Cells were seeded in a total volume of 20 μL into white walled, 384-well microplates and incubated at 37° C. overnight. cAMP modulation was determined using the DiscoverX HitHunter cAMP XS+ assay. […]
Compound activity was analyzed using CBIS data analysis suite (ChemInnovation, CA). […]

The target in assay [3] is T3, 5HT2A. In words: PathHunter β-Arrestin assay. The class given is cell-based. On the set-up: host or cells: U2OS (human), stably transfected. An excerpt: Arrestin Pathway (Performed by DiscoverX Eurofins)
The PathHunter® β-Arrestin assay monitors the activation of a GPCR in a homogenous, non-imaging assay format using a technology developed by DiscoverX called Enzyme Fragment Complementation (EFC) with β-galactosidase (β-Gal) as the functional reporter. […] EA is fused to β-Arrestin and PK is fused to the GPCR of interest. When the GPCR is activated and β-Arrestin is recruited to the receptor, ED and EA complementation occurs, restoring β-Gal activity which is measured using chemiluminescent PathHunter® Detection Reagents.
PathHunter cell lines (DiscoveRx Eurofins) were expanded from freezer stocks according to standard procedures. Human 5-HT2A receptor-mediated GPCR β-arrestin activity was evaluated in stably transfected human-derived U2OS cells. Cells were seeded in a total […] into white walled, 384-well microplates and incubated at 37° C. overnight prior to testing.
For agonist determination, cells were incubated with sample to induce response. Intermediate dilution of sample stocks was performed to generate 5× sample in assay buffer. 5 μL of 5× sample was added to cells and incubated at 37° C. or room temperature for 120 minutes. Vehicle concentration was 1%.
β-Arrestin assay signal was generated through a single addition of 12.5 or 15 μL (50% v/v) of PathHunter Detection reagent cocktail, followed by a one hour incubation at room temperature. Microplates were read following signal generation with a PerkinElmer Envision™ instrument for chemiluminescent signal detection.
Compound activity was analyzed using CBIS data analysis suite (ChemInnovation, CA). For agonist mode assays, percentage activity was calculated using the following formula: % Activity=100%×(mean RLU of test sample−mean RLU of vehicle control)/(mean MAX control ligand−mean RLU of vehicle control).
In these studies, the MAX control ligand response was generated using 1 μM serotonin.

Assay [4] deals with T3, 5HT2A. In words: 5HT2A activation (%) max at two concentrations (Table 1). The conditions noted are these: for 5HT2A activation (%) max @ 03 μM: 03 μM [sic]; for 5HT2A activation (%) max @ 30 μM: 30 μM (first value of the cell). The class given is cell-based.
The test system of the next assay is 5-HT receptors. The conditions noted are these: cited from earlier work.

Where a name gives a salt, the structure may show the parent alone.

T3 sequence (P28223 whole entry): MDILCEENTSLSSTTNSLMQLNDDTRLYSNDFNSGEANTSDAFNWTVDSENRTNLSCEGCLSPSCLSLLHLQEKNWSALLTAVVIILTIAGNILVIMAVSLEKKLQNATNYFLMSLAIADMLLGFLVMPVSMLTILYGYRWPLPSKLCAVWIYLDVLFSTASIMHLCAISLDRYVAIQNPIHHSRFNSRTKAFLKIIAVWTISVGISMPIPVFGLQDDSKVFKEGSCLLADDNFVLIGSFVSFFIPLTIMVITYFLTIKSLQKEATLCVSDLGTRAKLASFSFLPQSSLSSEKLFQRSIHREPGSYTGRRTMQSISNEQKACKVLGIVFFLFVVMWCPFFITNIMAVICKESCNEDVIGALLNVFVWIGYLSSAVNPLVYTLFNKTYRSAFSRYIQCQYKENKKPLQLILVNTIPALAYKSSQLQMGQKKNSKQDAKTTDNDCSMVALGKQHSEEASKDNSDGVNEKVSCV
T2 sequence (P41595 whole entry): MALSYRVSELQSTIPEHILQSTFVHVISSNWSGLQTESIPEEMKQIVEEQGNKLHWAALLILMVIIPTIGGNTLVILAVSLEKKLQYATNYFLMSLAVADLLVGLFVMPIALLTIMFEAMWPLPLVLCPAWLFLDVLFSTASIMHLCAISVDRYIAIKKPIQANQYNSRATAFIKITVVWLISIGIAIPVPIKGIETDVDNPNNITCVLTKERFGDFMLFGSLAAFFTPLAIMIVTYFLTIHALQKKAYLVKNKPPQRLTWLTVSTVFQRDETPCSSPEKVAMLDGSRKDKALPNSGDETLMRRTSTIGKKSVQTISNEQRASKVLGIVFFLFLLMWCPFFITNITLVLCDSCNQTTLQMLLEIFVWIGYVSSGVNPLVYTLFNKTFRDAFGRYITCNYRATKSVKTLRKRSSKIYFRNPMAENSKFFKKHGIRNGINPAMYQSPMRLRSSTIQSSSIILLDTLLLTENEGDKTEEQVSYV

As a reminder, the EC50 is the concentration at which the effect is half-maximal. With `COc1cc(C)c(OC)c2c1CC(N)CC2` (stereo not shown) [Compound 1-2, 5,8-dimethoxy-6-methyl-1,2,3,4-tetrahydronaphthalen-2-amine], the EC50 on Human 5-HT2C receptor worked out at 4.8 nM; at Human 5-HT2B receptor, 315 nM; on 5HT2A [1] (calcium mobilization) it was 38.8 nM; at Human 5-HT1A receptor it was 438 nM; at 5HT2A [3] (U2OS cells, read-out: EC50 5-HT2A (β-arrestin signaling)), 386 nM. In addition, the “agonism of 5-HT2A Gq-mediated signaling” value at 5HT2A [1] is given as “full-agonism”. Also, the “potency bias, 5-HT2A Gq-mediated signaling versus β-arrestin recruitment” value on 5HT2A [1] (FIG. 1B) was ~10 fold. Besides, the “increase in potency at 5-HT2A compared to 5-HT2B” value at 5HT2A [1] (Gq signaling, FIG. 1A) is on record as ~8 fold. Also, the Emax is 97% on 5HT2A [1] (compared to the maximum serotonin response, read-out: max activation of 5-HT2A Gq-mediated signaling) and 66% on 5HT2A [3] (read-out: maximum efficacy levels (partial agonism), pathway not given, β-arrestin by context). Also, the “common psychedelic side effects in rats” value in assay [2] is “failed to elicit common psychedelic side effects”. The “agonism / potency for β-arrestin recruitment at 5-HT2A” value at 5HT2A [3] was “partial agonism”. In addition, the “5HT2A activation (%) max @ 03 μM” value at 5HT2A [4] is 60.9%. Further, at 5HT2A [4], the “5HT2A activation (%) max @ 30 μM” value came out at 81.9%. Moreover, in the assay with 5-HT receptors, the “activity at 5-HT receptors” value is “has activity at 5-HT receptors”.

In the case of `COc1ccc(OC)c2c1CCCC2CN` (stereo not shown) [Compound 3-1, (5,8-dimethoxy-1,2,3,4-tetrahydronaphthalen-1-yl)methanamine hydrochloride], at 5HT2A [4], the “5HT2A activation (%) max @ 03 μM” value is 1.5% and the “5HT2A activation (%) max @ 30 μM” value was 53%.

In the case of `CNC1CCc2c(OC)ccc(OC)c2C1` (stereo not shown) [Compound 1-4, 5,8-dimethoxy-N-methyl-1,2,3,4-tetrahydronaphthalen-2-amine hydrochloride], at 5HT2A [4], the “5HT2A activation (%) max @ 03 μM” value amounted to 8.5% and the “5HT2A activation (%) max @ 30 μM” value is 20.3%.
